Drawing on DBAASP, this text covers MIC for five molecules.

Common to all, as to assay: ≥ marks a high value that may be exact or a test limit, other limits are often not marked, values filed in µg/mL are converted to µM
In assay [1] the test system is Bacillus subtilis.
Assay [2] relates to Candida albicans.
In assay [3] the test system is Cryptococcus neoformans.
Assay [4] concerns Escherichia coli.
Assay [5] has as its system Pseudomonas putida.
The test system of assay [6] is Saccharomyces cerevisiae.
The test system of assay [7] is Salmonella typhimurium.
Assay [8] deals with Serratia marcescens.
Assay [9] concerns Staphylococcus aureus.
In assay [10] the test system is Streptococcus mutans.
The subject of assay [11] is Streptococcus pneumoniae.
The test system of assay [12] is Staphylococcus aureus ATCC 33592.
Assay [13] concerns Bacillus megaterium Bm11.
Assay [14] deals with Escherichia coli ML-35.
The subject of assay [15] is Proteus mirabilis.
Assay [16] has as its system Salmonella enterica subsp. enterica serovar Typhimurium ATCC 14028.
The subject of assay [17] is Staphylococcus aureus ATCC 25923.
Assay [18] deals with Bacillus subtilis CMCC 63501.
Assay [19] has as its system Enterococcus faecalis ATCC 29212.
The test system of assay [20] is Escherichia coli 078.
Assay [21] deals with Escherichia coli ATCC 25922.
For assay [22], the system named is Escherichia coli K88.
Assay [23] relates to Escherichia coli K99.
Assay [24] deals with Escherichia coli UB1005.
The subject of assay [25] is Salmonella enterica subsp. enterica serovar Pullorum C79-13.
In assay [26] the test system is Salmonella enterica subsp. enterica serovar Typhimurium C77-31.
For assay [27], the system named is Staphylococcus aureus ATCC 29213.
Assay [28] deals with Staphylococcus epidermidis ATCC 12228.
In assay [29] the test system is Bacillus subtilis ATCC 62037.
For assay [30], the system named is Candida albicans ATCC 10231.
For assay [31], the system named is Cryptococcus neoformans ATCC 34881.
Assay [32] deals with Escherichia coli ATCC 27325.
The test system of assay [33] is Pseudomonas putida ATCC 17426.
In assay [34] the test system is Saccharomyces cerevisiae ATCC 44774.
For assay [35], the system named is Salmonella enterica subsp. enterica serovar Enteritidis ATCC 13076.
Assay [36] has as its system Staphylococcus aureus ATCC 15752.
For assay [37], the system named is Streptococcus mutans ATCC 25175.

Structures are written as SMILES. In brackets after ≈: the same amount, converted by molar mass.

Usually MIC stands for the least concentration at which growth counts as inhibited. A high value points to a less susceptible organism. In the case of `CC(C)C[C@H](NC(=O)CNC(=O)[C@H](CCCCN)NC(=O)[C@@H](N)CCCN=C(N)N)C(=O)N[C@@H](CCC(N)=O)C(=O)N[C@@H](CCCCN)C(=O)N[C@@H](CC(C)C)C(=O)N[C@H](C(=O)NCC(=O)N[C@@H](CCCN=C(N)N)C(=O)N[C@H](C(=O)N[C@@H](Cc1cnc[nH]1)C(=O)N[C@@H](CCCN=C(N)N)C(=O)N[C@@H](CC(C)C)C(=O)N[C@@H](CC(C)C)C(=O)N[C@@H](CCCN=C(N)N)C(=O)N[C@@H](CCCCN)C(=O)O)C(C)C)C(C)C` [RKGLQKLVGRVHRLLRK], the minimal inhibitory concentration (MIC) in assay [1] was determined as 7.78 µM (≈ 16 µg/mL); in assay [2] it was 7.78 µM (≈ 16 µg/mL); in [3], 3.89 µM (≈ 8 µg/mL); in assay [4], 7.78 µM (≈ 16 µg/mL); in assay [5], 7.78 µM (≈ 16 µg/mL); in assay [6] it was 1.94 µM (≈ 4 µg/mL). The minimum inhibitory concentration (MIC) in assay [7] came out at 1.94 µM (≈ 4 µg/mL); in [8], 15.6 µM (≈ 32 µg/mL); in assay [9], 7.78 µM (≈ 16 µg/mL); in assay [10], 15.6 µM (≈ 32 µg/mL); in assay [11], 7.78 µM (≈ 16 µg/mL).
For the molecule `CC[C@H](C)[C@H](NC(=O)[C@H](Cc1c[nH]c2ccccc12)NC(C)=O)C(=O)N[C@@H](CCCCN)C(=O)N[C@@H](CCCN=C(N)N)C(=O)N[C@@H](CC(C)C)C(=O)N[C@@H](CC(N)=O)C(=O)N[C@@H](CO)C(=O)N[C@@H](Cc1c[nH]c2ccccc12)C(=O)N[C@@H](CC(C)C)C(=O)N[C@@H](CCCN=C(N)N)C(=O)N[C@@H](CCCCN)C(N)=O` [WIKRLNSWLRK], the minimum inhibitory concentration (MIC) in [12] was at least 32 µM.
On to `CC[C@H](C)[C@H](NC(=O)CN)C(=O)N[C@@H](CC(C)C)C(=O)N[C@@H](CO)C(=O)N[C@@H](CCCCN)C(=O)N[C@@H](CC(C)C)C(=O)NCC(=O)N[C@@H](CCCCN)C(=O)N[C@@H](C)C(=O)N[C@@H](CC(C)C)C(=O)N[C@@H](CCCCN)C(=O)N[C@@H](CCCCN)C(=O)N[C@@H](C)C(=O)N[C@@H](C)C(=O)N[C@@H](CCCCN)C(=O)N[C@@H](Cc1cnc[nH]1)C(=O)N[C@@H](C)C(=O)N[C@@H](C)C(=O)N[C@@H](CCCCN)C(=O)N[C@@H](C)C=O` [GILSKLGKALKKAAKHAAKA], for which the MIC was 4 µM (≈ 7.95 µg/mL) in [13]; 8 µM (≈ 15.9 µg/mL) in assay [14]; 4 µM (≈ 7.95 µg/mL) in assay [4]; at least 32 µM in [15]; 8 µM (≈ 15.9 µg/mL) in assay [16]; 8 µM (≈ 15.9 µg/mL) in [17]. In [9], this molecule gave a minimum inhibitory concentration (MIC) of 2 µM (≈ 3.98 µg/mL).
For `CC[C@H](C)[C@H](NC(=O)[C@H](Cc1c[nH]c2ccccc12)NC(=O)[C@H](CCCCN)NC(=O)[C@H](Cc1c[nH]c2ccccc12)NC(=O)[C@@H](NC(=O)[C@H](Cc1c[nH]c2ccccc12)NC(=O)CNC(=O)[C@@H](NC(=O)[C@H](CCCCN)NC(=O)[C@H](CCCCN)NC(=O)[C@H](Cc1c[nH]c2ccccc12)NC(=O)[C@@H](N)CCCN=C(N)N)[C@@H](C)CC)C(C)C)C(N)=O` [RWKKIGWVWKWI], the MIC came to 1 µM (≈ 1.69 µg/mL) in [18]; 2 µM (≈ 3.37 µg/mL) in [19]; 2 µM (≈ 3.37 µg/mL) in assay [20]; 2 µM (≈ 3.37 µg/mL) in [21]; 2 µM (≈ 3.37 µg/mL) in assay [22]; 2 µM (≈ 3.37 µg/mL) in assay [23]. The MIC in assay [24] worked out at 1 µM (≈ 1.69 µg/mL); in assay [25], 1 µM (≈ 1.69 µg/mL); in [16], 2 µM (≈ 3.37 µg/mL); in [26], 4 µM (≈ 6.74 µg/mL); in [17] it was 2 µM (≈ 3.37 µg/mL); in assay [27], 4 µM (≈ 6.74 µg/mL). In [28], this molecule showed an MIC of 4 µM (≈ 6.74 µg/mL).
For the molecule `CC(C)C[C@H](NC(=O)CNC(=O)[C@H](C)NC(=O)[C@@H](N)CCCN=C(N)N)C(=O)N[C@@H](CCC(N)=O)C(=O)N[C@@H](Cc1ccccc1)C(=O)N1CCC[C@H]1C(=O)N[C@H](C(=O)NCC(=O)N[C@@H](CCCN=C(N)N)C(=O)N[C@@H](CC(C)C)C(=O)N[C@@H](CC(C)C)C(=O)N[C@@H](CCCN=C(N)N)C(=O)N[C@@H](CCCN=C(N)N)C(=O)N[C@@H](CC(C)C)C(=O)N[C@@H](CC(C)C)C(=O)N[C@@H](CCCN=C(N)N)C(=O)N[C@@H](CCCN=C(N)N)C(=O)N[C@@H](CC(C)C)C(=O)N[C@@H](CC(C)C)C(=O)N[C@@H](CCCN=C(N)N)C(=O)O)C(C)C` [RAGLQFPVGRLLRRLLRRLLR], the MIC in assay [29] came out at 0.391 µM (≈ 1 µg/mL); in assay [1], 0.391 µM (≈ 1 µg/mL); in [30], 0.391 µM (≈ 1 µg/mL); in assay [2], 0.781 µM (≈ 2 µg/mL); in assay [31] it was 0.781 µM (≈ 2 µg/mL); in assay [3], 0.391 µM (≈ 1 µg/mL). The MIC in assay [32] was 0.391 µM (≈ 1 µg/mL); in assay [4] it was 0.391 µM (≈ 1 µg/mL); in assay [33] it was 0.781 µM (≈ 2 µg/mL); in assay [5], 0.781 µM (≈ 2 µg/mL); in assay [34], 0.781 µM (≈ 2 µg/mL); in [6], 1.56 µM (≈ 4 µg/mL). The minimal inhibitory concentration (MIC) was determined as 0.781 µM (≈ 2 µg/mL) in assay [35]; 0.391 µM (≈ 1 µg/mL) in assay [7]; 0.391 µM (≈ 1 µg/mL) in assay [8]; 0.781 µM (≈ 2 µg/mL) in assay [36]; 0.391 µM (≈ 1 µg/mL) in [9]; 0.781 µM (≈ 2 µg/mL) in assay [37]. For the same molecule, the MIC in assay [10] was determined as 0.195 µM (≈ 0.5 µg/mL); in [11], 0.391 µM (≈ 1 µg/mL).
